Source: patent US9233977B2, “Leucine-rich repeat kinase enzyme activity” (Merck Sharp & Dohme Corp., priority 2010, dated 2016)

target: T1, LRRK2 G2019S mutant kinase (Homo sapiens, UniProt Q5S007, G2019S); test: LRRK2 G2019S LanthaScreen TR-FRET kinase assay; format: biochemical; details: LRRK2 G2019S GST-tagged protein, 75 nM Fluorescein-ERM (LRRKtide), 100 μM ATP, 1 hour at room temperature; read-out: IC50 (potency)
T1 construct: GST; purchased Invitrogen PV4882
Description: The final solvent concentration in the assay was 1% DMSO. […] Generation of raw data and workup of data to derive the IC50 (potency) and maximal inhibition at concentrations tested were performed using Merck's Assay Data Analyzer (ADA) software.
The IC50 (potency) was evaluated for the example compounds presented above.

T1 sequence (Q5S007 whole entry G2019S): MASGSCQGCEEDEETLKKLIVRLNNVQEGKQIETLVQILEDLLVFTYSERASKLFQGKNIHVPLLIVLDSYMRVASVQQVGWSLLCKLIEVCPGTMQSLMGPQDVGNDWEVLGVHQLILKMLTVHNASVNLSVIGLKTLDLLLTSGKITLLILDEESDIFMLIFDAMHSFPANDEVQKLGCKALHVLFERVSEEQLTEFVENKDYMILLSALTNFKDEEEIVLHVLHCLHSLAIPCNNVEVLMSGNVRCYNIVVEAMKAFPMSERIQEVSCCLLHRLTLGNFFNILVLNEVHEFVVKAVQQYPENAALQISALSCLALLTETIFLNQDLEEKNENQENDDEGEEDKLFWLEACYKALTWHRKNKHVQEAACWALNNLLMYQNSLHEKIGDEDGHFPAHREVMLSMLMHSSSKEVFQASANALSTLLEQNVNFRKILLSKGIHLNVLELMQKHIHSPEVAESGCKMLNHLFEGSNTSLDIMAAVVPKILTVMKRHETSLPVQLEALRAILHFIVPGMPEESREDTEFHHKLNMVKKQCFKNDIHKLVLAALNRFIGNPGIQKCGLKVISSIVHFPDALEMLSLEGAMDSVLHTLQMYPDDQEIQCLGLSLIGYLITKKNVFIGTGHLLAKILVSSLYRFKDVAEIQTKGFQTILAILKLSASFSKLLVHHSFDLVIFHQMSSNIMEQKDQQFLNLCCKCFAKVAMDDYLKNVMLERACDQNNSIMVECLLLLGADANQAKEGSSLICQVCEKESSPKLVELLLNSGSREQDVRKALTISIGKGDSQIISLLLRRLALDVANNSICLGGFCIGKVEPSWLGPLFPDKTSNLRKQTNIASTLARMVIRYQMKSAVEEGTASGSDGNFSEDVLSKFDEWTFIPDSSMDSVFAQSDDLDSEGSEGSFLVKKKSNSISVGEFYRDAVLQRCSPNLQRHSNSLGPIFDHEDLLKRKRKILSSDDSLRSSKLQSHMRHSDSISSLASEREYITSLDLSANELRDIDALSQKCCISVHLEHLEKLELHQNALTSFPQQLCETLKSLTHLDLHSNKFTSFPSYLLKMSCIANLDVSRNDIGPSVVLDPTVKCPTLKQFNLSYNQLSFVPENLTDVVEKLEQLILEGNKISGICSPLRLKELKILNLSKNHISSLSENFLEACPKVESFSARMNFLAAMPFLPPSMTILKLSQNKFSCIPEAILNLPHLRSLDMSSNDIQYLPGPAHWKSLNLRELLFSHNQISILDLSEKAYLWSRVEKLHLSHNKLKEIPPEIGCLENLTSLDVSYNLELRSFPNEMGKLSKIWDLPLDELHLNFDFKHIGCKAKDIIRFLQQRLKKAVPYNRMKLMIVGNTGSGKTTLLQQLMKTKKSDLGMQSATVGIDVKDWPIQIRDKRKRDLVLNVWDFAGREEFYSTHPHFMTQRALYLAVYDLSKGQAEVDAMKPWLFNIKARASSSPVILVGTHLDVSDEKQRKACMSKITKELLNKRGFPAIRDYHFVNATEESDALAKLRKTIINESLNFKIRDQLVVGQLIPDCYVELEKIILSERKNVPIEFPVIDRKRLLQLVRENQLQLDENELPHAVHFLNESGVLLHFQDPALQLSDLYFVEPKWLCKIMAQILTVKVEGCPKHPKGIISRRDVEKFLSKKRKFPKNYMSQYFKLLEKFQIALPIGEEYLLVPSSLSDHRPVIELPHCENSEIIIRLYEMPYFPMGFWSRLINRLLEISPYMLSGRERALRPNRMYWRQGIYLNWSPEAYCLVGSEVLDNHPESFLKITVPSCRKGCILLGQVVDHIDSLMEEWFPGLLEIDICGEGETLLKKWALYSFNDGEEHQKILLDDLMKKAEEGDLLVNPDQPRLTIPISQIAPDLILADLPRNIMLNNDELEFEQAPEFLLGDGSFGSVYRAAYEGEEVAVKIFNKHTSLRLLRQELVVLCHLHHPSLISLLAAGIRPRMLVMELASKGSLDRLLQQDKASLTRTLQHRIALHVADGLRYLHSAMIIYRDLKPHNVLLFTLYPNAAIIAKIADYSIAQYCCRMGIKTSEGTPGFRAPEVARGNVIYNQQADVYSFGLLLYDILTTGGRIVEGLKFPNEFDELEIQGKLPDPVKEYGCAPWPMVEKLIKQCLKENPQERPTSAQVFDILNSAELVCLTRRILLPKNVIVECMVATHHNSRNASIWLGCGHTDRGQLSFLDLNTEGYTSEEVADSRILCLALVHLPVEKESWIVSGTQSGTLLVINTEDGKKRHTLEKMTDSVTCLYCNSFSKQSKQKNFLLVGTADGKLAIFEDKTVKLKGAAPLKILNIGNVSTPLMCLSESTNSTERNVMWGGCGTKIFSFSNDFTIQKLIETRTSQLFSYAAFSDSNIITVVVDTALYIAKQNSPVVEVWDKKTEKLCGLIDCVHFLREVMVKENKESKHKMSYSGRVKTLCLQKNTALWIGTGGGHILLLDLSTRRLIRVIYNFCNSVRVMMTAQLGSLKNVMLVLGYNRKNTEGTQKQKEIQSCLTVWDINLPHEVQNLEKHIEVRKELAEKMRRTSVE

| SMILES | IC50 [nM] |
| --- | --- |
| O=C1NCCc2c(-c3cc[nH]n3)sc(SCCO)c21 [Example 47] | 580 |
| CC(C)CC1Cc2c(-c3cc[nH]n3)sc(NC3CCCC3)c2C(=O)N1 (centres unmarked) [Example 89, 3-(cyclopentylamino)-6-(2-methyl)propyl-1-(1H-pyrazol-3-yl)-6,7-dihydrothieno[3,4-c]pyridin-4(5H)-one] | 190 |
| CC(C)Sc1sc(-c2cc[nH]n2)c2c1C(=O)NCC2 [Example 41, 3-[2-(1-methyl)ethylsulfanyl]-1-(1H-pyrazol-3-yl)-6,7-dihydrothieno[3,4-c]pyridin-4(5)-one] | 460 |
| O=C1NC2(CCC2)Cc2c(-c3cc[nH]n3)sc(SC3CCCC3)c21 [Example 32, 3′-(cyclopentylsulfanyl)-4′-oxo-1′-(1H-pyrazol-3-yl)-7′H-spiro[cyclobutane-1,6′-thieno[3,4-1]pyridine]-4′(5′H)-one] | 140 |
| CSc1sc(-c2cc[nH]n2)c2c1C(=O)N(CCC1CCCCC1)CC2 [Example 71, 3-(methylsulfanyl)-5-[(2-cyclohexyl)ethyl]-1-(1H-pyrazol-3-yl)-6,7-dihydrothieno[3,4-c]pyridin-4(5)-one] | 7500 |
| CSc1sc(-c2cc[nH]n2)c2c1C(=O)N(CCCCc1ccccc1)CC2 [Example 64, 5-[(4-phenyl)butyl]-3-(methylsulfanyl)-1-(1H-pyrazol-3-yl)-6,7-dihydrothieno[3,4-c]pyridin-4(5)-one] | 5000 |
| O=C1NCCc2c(-c3cc[nH]n3)sc(NC3CCCC3)c21 [Example 90, 3-(cyclopentylamino)-(1H-pyrazol-3-yl)-6,7-dihydrothieno[3,4-c]pyridin-4(5H)-one] | 360 |
| CSc1sc(-c2cc[nH]n2)c2c1C(=O)N(CCCCO)CC2 [Example 60, 5-(4-hydroxybutyl)-3-(methylsulfanyl)-1-(1H-pyrazol-3-yl)-6,7-dihydrothieno[3,4-c]pyridin-4(5)-one] | 1700 |
| CNc1sc(-c2cc[nH]n2)c2c1C(=O)NCC2 [Example 91, 3-(methylamino)-(1H-pyrazol-3-yl)-6,7-dihydrothieno[3,4-c]pyridin-4(5H)-one] | 1400 |
| CNc1sc(-c2cc[nH]n2)c2c1C(=O)NC(CC(C)C)C2 (centres unmarked) [Example 95, 3-(methylamino)-6-(2-methyl)propyl-1-(1H-pyrazol-3-yl)-6,7-dihydrothieno[3,4-c]pyridin-4(5H)-one] | 470 |
| CSc1sc(-c2cc[nH]n2)c2c1C(=O)N(CCCC#N)CC2 [Example 59, 4-[3-(methylsulfanyl)-4-oxo-1-(1H-pyrazol-3-yl)-6,7-dihydrothieno[3,4-]pyridin-5(4H)-yl]butanenitrile] | 3700 |
| CSc1sc(-c2cc[nH]n2)c2c1C(=O)N(Cc1ccc(Br)cn1)CC2 [Example 57, 5-[(5-bromopyridin-2-yl)methyl]-3-(methylsulfanyl)-1-(1H-pyrazol-3-yl)-6,7-dihydrothieno[3,4-c]pyridin-4(5)-one] | 3800 |

Continued by falling IC50, values first:

| IC50 [nM] | SMILES |
| --- | --- |
| 2200 | CCN1CCc2c(-c3cc[nH]n3)sc(SC)c2C1=O [Example 76, 5-ethyl-3-(methylsulfanyl)-1-(1H-pyrazol-3-yl)-6,7-dihydrothieno[3,4-c]pyridin-4(5)-one] |
| 1200 | CNc1sc(-c2cc[nH]n2)c2c1C(=O)N[C@@H](C)C2 [Example 99, (6S)-3-(methylamino)-6-methyl-1-(1H-pyrazol-3-yl)-6,7-dihydrothieno[3,4-c]pyridin-4(5H)-one] |
| 320 | C[C@H]1Cc2c(-c3cc[nH]n3)sc(NC3CCCC3)c2C(=O)N1 [Example 97, (6S)-3-(cyclopentylamino)-6-methyl-1-(1H-pyrazol-3-yl)-6,7-dihydrothieno[3,4-c]pyridin-4(5H)-one] |
| 120 | CC1CNC(=O)c2c(NC3CCCC3)sc(-c3cc[nH]n3)c21 (centres unmarked) [Example 86, 3-(cyclopentylamino)-7-methyl-1-(1H-pyrazol-3-yl)-6,7-dihydrothieno[3,4-e]pyridin-4(5H)-one] |
| 35 | CC1Cc2c(-c3cc[nH]n3)sc(SC3CCCC3)c2C(=O)N1 (centres unmarked) [Example 31, 6-methyl-3-(cyclopentylsulfanyl)-1-(1H-pyrazol-3-yl)-6,7-dihydrothieno[3,4-c]pyridin-4(5)one] |
